Structures can show the parent of a compound that is named as a salt.
Key:
HKII = assay: Glycolysis enzyme levels in CC cells (WB, ICC); format: cell-based, human
Experimental: WB analyses were carried out as previously described before. In brief, cells were lysed in RIPA buffer mixed with protease inhibitors and separated on SDS-PAGE gel, transferred to PVDF membrane treated with 5% skim milk to exclude non-specific background and incubated with a primary antibody over-night. The membrane was incubated for 1 h with a secondary antibody conjugated to Horseradish Peroxidase (HRP). The protein-antibody complex was visualized using the SuperSignal West Pico Chemiluminescent Substrate (Thermo scientific, USA).
Cells were fixed with 4% paraformaldehyde (30 min) and incubated with Permeabilization Solution containing 0.1% Triton X-100 (Sigma-Aldrich, Israel) in PBS at room temperature for 1 h. Nonspecific binding was blocked with PBS containing 10% fetal bovine serum for 1 h at room temperature. Cells were incubated with specific antibodies diluted 1:100 overnight at 4° C. […] Bound primary antibodies were detected by Alexa Fluor® 488 goat anti-mouse IgG antibody or Alexa Fluor® 594 goat anti-rabbit IgG antibody (Molecular Probes, Invitrogen, U.K.). […] Nonspecific staining, as determined by binding to the secondary antibody only, was negligible. The immunostained slides were examined under the fluorescence microscope AxioimagerZ1 (Zeiss, Germany) or confocal fluorescence microscope (Olympus-FV1000).

CC cells = assay: Mitochondrial membrane potential (TMRE) in CC cells; format: cell-based, human; details: malignant cells
Experimental: (§1) For microscopic and ELISA based analyses of cells MMP, Tetra-Methyl-Rhodamine-Ethyl ester (TMRE) incorporation assay was carried out according to the manufacturer's instructions (Abcam, USA).

[1] = molecular target: FLT3 (FMS-like tyrosine kinase 3) (Homo sapiens, UniProt P36888); assay: Kinase panel assay, FLT3; format: biochemical; details: above threshold
Sequence of FLT3 (FMS-like tyrosine kinase 3) (P36888 27-993): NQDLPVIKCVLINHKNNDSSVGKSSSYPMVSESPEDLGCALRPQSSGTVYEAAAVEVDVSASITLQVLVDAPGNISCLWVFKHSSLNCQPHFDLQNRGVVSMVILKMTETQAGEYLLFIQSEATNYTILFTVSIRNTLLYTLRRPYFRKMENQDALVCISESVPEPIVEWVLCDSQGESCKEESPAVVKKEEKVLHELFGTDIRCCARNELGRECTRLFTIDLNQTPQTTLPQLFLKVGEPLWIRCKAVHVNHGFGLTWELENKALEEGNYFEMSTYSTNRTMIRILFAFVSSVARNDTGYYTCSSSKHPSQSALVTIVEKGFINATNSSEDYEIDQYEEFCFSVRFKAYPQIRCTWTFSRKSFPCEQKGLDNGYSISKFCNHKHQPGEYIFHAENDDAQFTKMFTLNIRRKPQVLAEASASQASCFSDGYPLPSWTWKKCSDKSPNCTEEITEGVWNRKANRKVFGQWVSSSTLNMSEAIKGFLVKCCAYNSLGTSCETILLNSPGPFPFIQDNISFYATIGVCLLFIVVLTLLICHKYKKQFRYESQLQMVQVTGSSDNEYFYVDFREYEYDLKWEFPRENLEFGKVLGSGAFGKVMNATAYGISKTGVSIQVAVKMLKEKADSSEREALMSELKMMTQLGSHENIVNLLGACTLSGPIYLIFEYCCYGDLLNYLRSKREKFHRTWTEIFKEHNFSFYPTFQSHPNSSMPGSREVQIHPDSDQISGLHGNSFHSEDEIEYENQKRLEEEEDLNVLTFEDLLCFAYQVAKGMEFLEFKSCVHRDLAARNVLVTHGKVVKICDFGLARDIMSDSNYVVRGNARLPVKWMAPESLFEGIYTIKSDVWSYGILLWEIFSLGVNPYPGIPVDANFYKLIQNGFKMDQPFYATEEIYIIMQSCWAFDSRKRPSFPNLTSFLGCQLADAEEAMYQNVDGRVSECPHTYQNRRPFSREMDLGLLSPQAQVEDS
Experimental: Kinase panel assays were performed using the FRET-based Z′-LYTE, Lantha Screen and Adapta enzymatic kinase assay systems (Life Technologies, Carlsbad, Calif.), which were carried out using the SelectScreen Kinase Profiling Service (Life Technologies). The standard reaction contained 2 μM peptide substrate, ATP at the optimal assay concentration, 50 mM HEPES (pH 7.5), 0.01% Brij-35, 10 mM MgCl2, 1 mM EGTA, and the tested kinase. Each kinase was checked for its activity in duplicate data points (n=2) and was assayed following the detailed procedures outlined in the SelectScreen service. Percent inhibition or ATP displacement (For Lantha screen) represent a ratio of phosphorylated/ATP bound product formed in the presence of the compound compared with phosphorylated/ATP bound product formed in reactions containing 1% DMSO.
Kinome technique was used for monitoring phosphorylation events and phosphorylation targets of 0260-Fer interaction, using peptide arrays for human targets and phosphorylation-specific antibodies. Construction of peptide arrays relied on information from phosphorylation databases. The following proteins were determined as significant above the threshold of 40% kinase activity inhibition or ATP displacement to the Kinase domain site.

Hfb [2] = assay: Cellular ATP level (HPLC) in Hfb; format: cell-based, human; details: 12 hours
Experimental: Quantification of intracellular ATP was carried out using HPLC as previously described.
Cells were suspended in 400 μl cold 0.4M perchloric acid solution, incubated on ice for 15 min, centrifuged at 12,000×g, neutralized with 4M K2CO3 to pH 7.5, incubated for 15 min on ice and concentrated (10,000×g). Chromatographic analyses were performed using Hitachi Elite LaChrom system at 30° C. applying supernatants to SUPELCOSIL™ LC-18-S HPLC Column (5 μm particle size, L×I.D. 25 cm×2.1 mm), flow rate 0.2 mL/min under isocratic elution conditions (50 mM potassium phosphate, 100 mM triethylamine, pH 6.5 (adjusted with phosphoric acid)):Acetonitrile (98.5:1.5)). Each analysis cycle was set to 30 min, chromatographic flow was monitored at 260 nm and integrated using EZChrom Elite Software.

Hfb [3] = assay: Mitochondrial membrane potential (TMRE) in normal human cells; format: cell-based
Experimental: as §1

## CC(C)c1ccc(-c2cn3nc(N4CCC(CN5CCN(C)CC5)CC4)sc3n2)cc1 [compound 0260, tartarate salt of 6-(4-isopropyl-phenyl)-2-{4-[(4-methyl-piperazin-1-yl)methyl]piperidin-1-yl}-imidazo [2,1-b][1,3,4]thiadiazole]
HKII
  HKII level: down-regulation of HKII
CC cells
  Mitochondrial Membrane Potential (MMP): depolarization
[1]
  kinase activity inhibition or ATP displacement: > 40%
Hfb [2]
  effect on cellular ATP level: not seen
Hfb [3]
  Mitochondrial Membrane Potential (MMP) depolarization: absent

Source: patent US20180071280A1, “MODULATORS OF CELL DEATH PROCESSES” (URIFER LTD., priority 2015, published 2018)
